Assay [1] has as its system bacteria of the Burkholderia cepacia complex. The assay can be described thus: Reduction in viability of Bcc bacteria (preservative activity). In kind it is cell-based. Conditions: in 4 hours.
Assay [2] has the same test system. The assay can be described thus: Sensitivity test (MIC/MBC by agar dilution and broth dilution) on a Burkholderia strain panel. In kind it is cell-based. The protocol: The minimum inhibitory concentration (MIC) and the minimum bactericidal concentration (MBC) of compounds of formula (I) of the invention, in particular EZ, were determined by standardized agar dilution and broth dilution tests, described by Rushton et al. Key role for efflux in the preservative susceptibility and adaptive resistance of Burkholderia cepacia complex bacteria. Antimicrobial Agents and Chemotherapy, 2013. 57(7): p. 2972-2980 using TSA/TSB. The culture was carried out at 30° C. in order to be representative of the production and storage of industrial products. Preserving stock solutions (50% w/v) were prepared in DMSO (Sigma-Aldrich, United Kingdom) and volumes were added to the medium so as to achieve the test concentration. The final concentration of DMSO in the presence of the bacterium was verified to be non-toxic (not exceeding 4% v/v) and was included as control condition in the tests in order to eliminate the effect on growth. […] The efficacy and toxicity of the neutralizing solution were evaluated before the experiment, as described in the scientific publication by Lear, J. C., et al. (J. C., et al., Chloroxylenol- and triclosan-tolerant bacteria from industrial sources—Susceptibility to antibiotics and other biocides. International Biodeterioration and Biodegradation, 2006. 57(1): p. 51-56). […]
A general note: Agar dilution tests growth on a series of plates holding different concentrations.

Assay [3] relates to bacteria of the Bcc complex. Conditions: levels used in industry; cited from earlier work.

Take `CCOc1cc(CCC(C)=O)ccc1O` [EZ, 4-(3-ethoxy-4-hydroxyphenyl)butan-2-one]: the reduction in viability in assay [1] was found to be 6 log. For the same compound, the “inhibitory activity with respect to bacteria of the Burkholderia cepacia complex” value in assay [2] was “very significant inhibitory activity”. Besides, the “efficacy against a diversified panel of 57 Burkholderia strains” value in assay [2] (strains representing species commonly encountered as contaminants, culture at 30° C.) is listed as “excellent efficacy”.
Take `O=C([O-])c1ccccc1.[Na+]` [sodium benzoate]: the “efficacy with respect to contamination by bacteria of the Bcc complex” value in assay [3] is given as “ineffective”.

The values are drawn from patent US20230037103A1, “USE OF A COMPOUND OF 4-(3-ETHOXY-4-HYDROXYPHENYL) ALKYL KETONE TYPE AGAINST BACTERIA OF THE BURKHOLDERIA CEPACIA COMPLEX” (L’OREAL, priority 2019, published 2023).
